Experimental data as given in US20230382915A1, “GCN2 AND PERK KINASE INHIBITORS AND METHODS OF USE THEREOF” (Deciphera Pharmaceuticals, LLC, priority 2021, published 2023).
pEC50: −log10 of the molar value.

Legend:
[1] = molecular target: PERK oligomers (HEK-293 cells) (Homo sapiens (Human), UniProt Q9NZJ5); assay: Detection of PERK oligomerization using NanoBRET; assay type: cell-based; settings: HEK-293, 4 h, FIG. 2; read-out: stimulation of the formation of PERK oligomers EC50
Method: Constructs for BRET were built using the NanoBRET™ Flexi® PPI Starter System (Promega, Madison, WI). The full-length PERK ORF was obtained from Genscript (Piscataway, NJ). HEK-293 cells (catalog #CRL-1573) were obtained from the American Type Culture Collection (ATTC, Manassas, VA). Cells were grown in MEM medium supplemented with 10% heat-inactivated fetal bovine serum (Invitrogen, Carlsbad, CA) and 1% Penicillin/Streptomycin/L-Glutamine at 37° C., 5% CO2, and 95% humidity. For BRET assays, cells were seeded at a density of 40,000 cells/mL in culture medium in 6-well plates and allowed to attach and recover. Cells were transfected with C-terminally tagged PERK-NLuc and C-terminally tagged PERK-Halo using Lipofectamine LTX (Thermo, Waltham, MA) and allowed to express proteins overnight at 37° C., 5% CO2, and 95% humidity. Cells were then detached from culture dishes using 0.05% trypsin-EDTA, collected, and diluted in assay medium consisting of Opti-MEM® I Reduced Serum Medium supplemented with 4% FBS (Thermo) to 22,000 cells/mL. Cells were dispensed into 96-well cell culture plates and HaloTag® NanoBRET™ 618 Ligand (Promega) was added to a final concentration of 100 nM. […] Donor ([…]) and acceptor (618) emissions were measured on a Synergy Neo2 Multi-Mode Reader (BioTek, Winooski, VT) within 10 min of substrate addition. […]

MV-4-11 xenograft = MV-4-11 xenograft efficacy model; assay type: in vivo, mice; settings: 14 days of dosing
Method: The MV-4-11 xenograft model was performed in compliance with all the laws, regulations and guidelines of the National Institutes of Health (NIH) and with the approval of the Animal Care and Use Committee of Crown Bioscience (Taicang, China), an AAALAC accredited facility. Food and water was provided ad libitum. […] Female NOD/SCID (6-9 weeks old; Vital River Laboratories Research Models and Services (Beijing, China)) were inoculated subcutaneously right front flank region with five million cells in Dulbecco's Phosphate Buffered Saline:Matrigel (1:1), using a 27-gauge needle and syringe. When tumor burdens reached 150 mm 3 on average on day 7, mice were randomly assigned into groups such that the mean tumor burden for all groups was within 10% of the overall mean tumor burden for the study population. Groups were treated on days 7-21 as follows: vehicle control (dosed orally and IP to mimic combination groups) (n=10); Compound 2 dosed orally at 50 mg/kg/day of Compound 2 (n=10); Leunase (Kyowa Kirin, Japan) dosed IP at 1000 U/kg/day (n=10); Leunase (Kyowa Kirin, Japan) dosed IP at 1000 U/kg/day (n=10) and Compound 2 dosed orally at 50 mg/kg/day of Compound 2 (n=10). Tumor volume and body weight were measured three time per week. Tumor burden (mg) was estimated from caliper measurements by the formula: tumor burden (mg=mm 3)=(length×width 2)/2.

[2] = test system: H2030 solid tumor spheroids; assay: Spheroid proliferation assay, H2030; assay type: cell-based; settings: for spheroid growth, combination treatment: 96 h
Method: Non Small Cell Lung Cancer (NSCLC) cell lines H358 (catalog #CRL-5807) and H2030 (catalog #CRL-5914), and fibrosarcoma line HT-1080 (catalog […]) were obtained from the American Type Culture Collect (ATTC, Manassas, VA). Cells were grown in RPMI-1640 medium supplemented with 10% heat-inactivated fetal bovine serum and 1% Penicillin/Streptomycin/L-Glutamine (Invitrogen, Carlsbad, CA) at 37° C., 5% CO2, and 95% humidity and maintained at 50-80% confluency until use. 500-1000 cells were plated in 96-well ultra-low attachment plates (Corning, Glendale, AZ) with complete growth media at 80 μL/well and incubated overnight at 37° C., 5% CO2, and 95% humidity to form spheroids. The next day, serial dilutions of test compounds were prepared in complete growth media and 20 μL/well media containing compound titers was added to spheroids in triplicate. […] At the end of the incubation, spheroids were lysed with 100 μL/well CellTiter-Glo 3D Viability Assay (Promega, Madison, WI) and luminescence was detected using Synergy2 or equivalent reader (Biotek, Winooski, VT). Data was analyzed using GraphPad Prism software (GraphPad, San Diego, CA) to calculate IC50 values.

[3] = test system: HT-1080 fibrosarcoma xenograft; assay: HT-1080 xenograft efficacy model; assay type: in vivo, mice; settings: 10 mg/kg BID, 14 days of dosing
Method: The HT-1080 xenograft model was performed in compliance with all the laws, regulations and guidelines of the National Institutes of Health (NIH) and with the approval of the Animal Care and Use Committee of Labcorp (Ann Arbor, MI), an AAALAC accredited facility. Food and water were provided ad libitum. […] Female nude mice (6-7 weeks old) were inoculated subcutaneously just below the right high axilla with two million cells in Dulbecco's Phosphate Buffered Saline, using a 27-gauge needle and syringe. When tumor burdens reached 100 mm 3 on average on day 6, mice were randomly assigned into groups such that the mean tumor burden for all groups was within 10% of the overall mean tumor burden for the study population. […] Tumor volume and body weight were measured three time per week. Tumor burden (mg) was estimated from caliper measurements by the formula: tumor burden (mg=mm 3)=(length×width 2)/2.

Sequence of PERK oligomers (HEK-293 cells) (Q9NZJ5 30-1116): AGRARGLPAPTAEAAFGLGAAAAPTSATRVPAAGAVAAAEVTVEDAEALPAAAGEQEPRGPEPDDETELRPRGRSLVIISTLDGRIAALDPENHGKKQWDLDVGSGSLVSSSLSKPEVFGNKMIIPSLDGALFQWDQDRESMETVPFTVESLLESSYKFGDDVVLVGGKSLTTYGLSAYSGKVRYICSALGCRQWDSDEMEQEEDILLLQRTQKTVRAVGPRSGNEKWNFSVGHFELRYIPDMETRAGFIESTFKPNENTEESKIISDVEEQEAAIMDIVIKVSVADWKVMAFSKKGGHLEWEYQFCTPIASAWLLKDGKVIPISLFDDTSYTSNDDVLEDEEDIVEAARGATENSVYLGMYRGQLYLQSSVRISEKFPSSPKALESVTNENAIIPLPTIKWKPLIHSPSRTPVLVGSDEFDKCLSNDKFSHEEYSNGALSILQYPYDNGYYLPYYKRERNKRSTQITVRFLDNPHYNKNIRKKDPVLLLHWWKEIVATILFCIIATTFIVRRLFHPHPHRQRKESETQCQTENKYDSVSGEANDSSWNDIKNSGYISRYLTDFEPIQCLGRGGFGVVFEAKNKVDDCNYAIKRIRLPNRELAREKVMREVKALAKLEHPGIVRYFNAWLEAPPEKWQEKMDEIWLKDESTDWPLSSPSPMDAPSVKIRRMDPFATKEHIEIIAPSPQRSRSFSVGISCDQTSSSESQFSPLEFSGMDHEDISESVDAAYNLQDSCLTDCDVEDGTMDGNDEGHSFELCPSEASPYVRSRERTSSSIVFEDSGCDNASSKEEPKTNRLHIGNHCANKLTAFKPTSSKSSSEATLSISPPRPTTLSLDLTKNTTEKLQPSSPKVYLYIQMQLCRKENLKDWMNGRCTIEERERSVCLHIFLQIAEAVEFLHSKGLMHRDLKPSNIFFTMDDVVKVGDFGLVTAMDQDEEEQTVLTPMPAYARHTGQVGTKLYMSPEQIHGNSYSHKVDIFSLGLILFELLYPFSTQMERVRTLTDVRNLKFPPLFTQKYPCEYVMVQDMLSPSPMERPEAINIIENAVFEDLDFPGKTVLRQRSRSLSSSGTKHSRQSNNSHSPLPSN
Sequence of PERK oligomers (HEK-293 cells) (Q9NZJ5 30-1116): as above

Cn1cc(-c2cccc(NS(=O)(=O)c3cc(Cl)cc(CO)c3Cl)c2F)c2c(N)ncnc21 [Example 2, N-(3-(4-amino-7-methyl-7H-pyrrolo[2,3-d]pyrimidin-5-yl)-2-fluorophenyl)-2,5-dichloro-3-(hydroxymethyl)benzenesulfonamide]
pEC50 [1]: 8.80 | mean tumor growth inhibition (MV-4-11 xenograft; 50 mg/kg/day combined with Leunase): 54% | effect on tumor growth, single agent (MV-4-11 xenograft; 50 mg/kg/day orally): no significant effect on tumor growth | cell regression, single agent ([2]; 5 days, FIG. 11A): 50% | spheroid growth, combination treatment ([2]; with 3.3 nM sotorasib, FIG. 12A): greater spheroid regression compared to either single agent | spheroid growth, combination treatment ([2]; with 3.7 nM trametinib, FIG. 12C): greater spheroid regression compared to either single agent | mean tumor growth inhibition [3]: 50%
